Laboratory results reported in US10954193B2 (Vanderbilt University, priority 2013, dated 2021).
pKi: −log10 of the molar value.

Biological target: recombinant Mcl-1 (residues 172-327) (Homo sapiens (Human), UniProt Q07820)
Test: Bak peptide binding assay, fluorescence polarization anisotropy competition (FITC-Bak), Mcl-1;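 also: displacement of labeled Bak peptide read by fluorescence anisotropy, 10-point threefold dilutions from 20 µM top dose in 5% DMSO, 90 min incubation at room temperature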
Settings: Table 3, binned ranges; FITC-Bak peptide 10 nM, Mcl-1 14 nM; read-out: Ki for inhibition of Mcl-1
Method: Bak Peptide Binding Assay
Compound affinity was measured using a fluorescence polarization anisotropy competition assay. Anisotropy measurements were carried out in 384-well, black, flat-bottom plates (Greiner Bio-one, Monroe, N.C., USA). […] 10 nM FITC-Bak peptide and 14 nM recombinant Mcl-1 (residues 172-327) were added to assay buffer (3 mM dithiothreitol, 50 mM NaCl, 20 mM Tris, pH 7.5).
Compounds are diluted in DMSO in a 10-point, 3-fold serial dilution scheme. 2.5 uL compound is added to 47.5 uL of assay buffer containing FITC-Bak and protein, for a final DMSO concentration of 5% and a top concentration of 20 uM. […] The plate was mixed and incubated for 90 minutes at room temperature. Anisotropy is measured at excitation wavelength 480 nm and emission wavelength 535 nm using an EnVision Multi-label plate reader (PerkinElmer, Wellesley, Mass., USA).

recombinant Mcl-1 (residues 172-327), sequence (Q07820 172-327): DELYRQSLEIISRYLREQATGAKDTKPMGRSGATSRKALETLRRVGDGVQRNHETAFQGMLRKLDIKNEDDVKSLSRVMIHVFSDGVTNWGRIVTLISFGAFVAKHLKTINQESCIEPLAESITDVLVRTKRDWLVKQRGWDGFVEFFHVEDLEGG

SMILES | pKi
Cc1cc(OCCCc2c(C)n(CCC(=O)O)c3c(-c4c(C)nn(Cc5ncccn5)c4C)cccc23)cc(C)c1Cl [Example 110, 3-(3-(3-(4-chloro-3,5-dimethylphenoxy)propyl)-7-(3,5-dimethyl-1-(pyrimidin-2-ylmethyl)-1H-pyrazol-4-yl)-2-methyl-1H-indol-1-yl)propanoic acid] | 5.00 to 6.00
Cc1cc(OCCCc2c(C)n(Cc3cccc(C(=O)O)c3)c3c(-c4c(C)nn(Cc5cccnc5)c4C)cccc23)cc(C)c1Cl [Example 112, 3-((3-(3-(4-chloro-3,5-dimethylphenoxy)propyl)-7-(3,5-dimethyl-1-(pyridin-3-ylmethyl)-1H-pyrazol-4-yl)-2-methyl-1H-indol-1-yl)methyl)benzoic acid] | 6.00 to 6.30
Cc1cc(OCCCc2c(C)n(CCC(=O)O)c3c(-c4c(C)nn(CCN5CCOCC5)c4C)c(Cl)ccc23)cc(C)c1Cl [Example 113, 3-(6-chloro-3-(3-(4-chloro-3,5-dimethylphenoxy)propyl)-7-(3,5-dimethyl-1-(2-morpholinoethyl)-1H-pyrazol-4-yl)-2-methyl-1H-indol-1-yl)propanoic acid] | ≥ 7.00
Cc1cc(OCCCc2c(C(F)(F)F)n(Cc3ccc(C(=O)O)cc3)c3c(Br)cccc23)cc(C)c1Cl [Example 116, 4-((7-bromo-3-(3-(4-chloro-3,5-dimethylphenoxy)propyl)-2-(trifluoromethyl)-1H-indol-1-yl)methyl)benzoic acid] | 6.52 to 7.00
Cc1cc(OCCCc2c(C(F)(F)F)n(CCc3ccc(C(=O)O)cc3)c3c(-c4c(C)nn(C)c4C)cccc23)cc(C)c1Cl [Example 118, 4-(2-(3-(3-(4-chloro-3,5-dimethylphenoxy)propyl)-2-(trifluoromethyl)-7-(1,3,5-trimethyl-1H-pyrazol-4-yl)-1H-indol-1-yl)ethyl)benzoic acid] | ≥ 7.00
Cc1cc(OCCCc2c(C(F)(F)F)n(Cc3ccc(C(=O)O)cn3)c3c(Br)cccc23)cc(C)c1Cl [Example 119, 6-((7-bromo-3-(3-(4-chloro-3,5-dimethylphenoxy)propyl)-2-(trifluoromethyl)-1H-indol-1-yl)methyl)nicotinic acid] | 5.00 to 6.00
Cc1cc(OCCCc2c(C(F)(F)F)n(Cc3cccc(C(=O)O)c3)c3c(-c4c(C)nn(C)c4C)c(Cl)ccc23)cc(C)c1Cl [Example 122, 3-((6-chloro-3-(3-(4-chloro-3,5-dimethylphenoxy)propyl)-2-(trifluoromethyl)-7-(1,3,5-trimethyl-1H-pyrazol-4-yl)-1H-indol-1-yl)methyl)benzoic acid] | ≥ 7.00
Cc1cc(OCCCc2c(C)n(Cc3cccc(C(=O)NS(=O)(=O)c4ccccn4)c3)c3c(-c4c(C)nn(C)c4C)cccc23)cc(C)c1Cl [Example 126, 3-((3-(3-(4-chloro-3,5-dimethylphenoxy)propyl)-2-methyl-7-(1,3,5-trimethyl-1H-pyrazol-4-yl)-1H-indol-1-yl)methyl)-N-(pyridin-2-ylsulfonyl)benzamide] | ≥ 7.00
Cc1cc(OCCCc2c(C)n(Cc3cccc(C(=O)NS(=O)(=O)c4ccccc4)c3)c3c(-c4c(C)nn(C)c4C)cccc23)cc(C)c1Cl [Example 127, 3-((3-(3-(4-chloro-3,5-dimethylphenoxy)propyl)-2-methyl-7-(1,3,5-trimethyl-1H-pyrazol-4-yl)-1H-indol-1-yl)methyl)-N-(phenylsulfonyl)benzamide] | ≥ 7.00
Cc1cc(OCCCc2c(C)n(Cc3cccc(C(=O)NS(=O)(=O)c4ccncc4)c3)c3c(-c4c(C)nn(C)c4C)cccc23)cc(C)c1Cl [Example 128, 3-((3-(3-(4-chloro-3,5-dimethylphenoxy)propyl)-2-methyl-7-(1,3,5-trimethyl-1H-pyrazol-4-yl)-1H-indol-1-yl)methyl)-N-(pyridin-4-ylsulfonyl)benzamide] | 6.52 to 7.00
Cc1cc(OCCCc2c(C)n(Cc3ccc(C(=O)NS(=O)(=O)c4ccccn4)cc3)c3c(-c4c(C)nn(C)c4C)cccc23)cc(C)c1Cl [Example 132, 4-((3-(3-(4-chloro-3,5-dimethylphenoxy)propyl)-2-methyl-7-(1,3,5-trimethyl-1H-pyrazol-4-yl)-1H-indol-1-yl)methyl)-N-(pyridin-2-ylsulfonyl)benzamide] | ≥ 7.00

Next, values leading:

pKi | SMILES
≥ 7.00 | Cc1cc(OCCCc2c(C)n(CCC(=O)O)c3c(-c4c(C)nn(Cc5ccccn5)c4C)cccc23)cc(C)c1Cl [Example 105, 3-(3-(3-(4-chloro-3,5-dimethylphenoxy)propyl)-7-(3,5-dimethyl-1-(pyridin-2-ylmethyl)-1H-pyrazol-4-yl)-2-methyl-1H-indol-1-yl)propanoic acid]
≥ 7.00 | Cc1cc(OCCCc2c(C)n(CCC(=O)O)c3c(-c4c(C)nn(CC5CCOC5)c4C)cccc23)cc(C)c1Cl (stereo not drawn) [Example 106, 3-(3-(3-(4-chloro-3,5-dimethylphenoxy)propyl)-7-(3,5-dimethyl-1-((tetrahydrofuran-3-yl)methyl)-1H-pyrazol-4-yl)-2-methyl-1H-indol-1-yl)propanoic acid]
6.30 to 6.52 | Cc1cc(OCCCc2c(C)n(CCC(=O)O)c3c(-c4c(C)nn(CCN(C)C)c4C)cccc23)cc(C)c1Cl [Example 109, 3-(3-(3-(4-chloro-3,5-dimethylphenoxy)propyl)-7-(1-(2-(dimethylamino)ethyl)-3,5-dimethyl-1H-pyrazol-4-yl)-2-methyl-1H-indol-1-yl)propanoic acid]
≥ 7.00 | Cc1cc(OCCCc2c(C)n(Cc3cccc(C(=O)O)c3)c3c(-c4c(C)nn(Cc5ccccn5)c4C)cccc23)cc(C)c1Cl [Example 111, 3-((3-(3-(4-chloro-3,5-dimethylphenoxy)propyl)-7-(3,5-dimethyl-1-(pyridin-2-ylmethyl)-1H-pyrazol-4-yl)-2-methyl-1H-indol-1-yl)methyl)benzoic acid]
≥ 7.00 | Cc1cc(OCCCc2c(C)n(CC(=O)O)c3c(-c4c(C)nn(C)c4C)c(Cl)ccc23)cc(C)c1Cl [Example 114, 2-(6-chloro-3-(3-(4-chloro-3,5-dimethylphenoxy)propyl)-2-methyl-7-(1,3,5-trimethyl-1H-pyrazol-4-yl)-1H-indol-1-yl)acetic acid]
6.52 to 7.00 | Cc1cc(OCCCc2c(C(F)(F)F)n(Cc3cccc(C(=O)O)c3)c3c(Br)cccc23)cc(C)c1Cl [Example 115, 3-((7-bromo-3-(3-(4-chloro-3,5-dimethylphenoxy)propyl)-2-(trifluoromethyl)-1H-indol-1-yl)methyl)benzoic acid]
≥ 7.00 | Cc1cc(OCCCc2c(C(F)(F)F)n(CC(=O)O)c3c(-c4c(C)nn(C)c4C)cccc23)cc(C)c1Cl [Example 120, 2-(3-(3-(4-chloro-3,5-dimethylphenoxy)propyl)-2-(trifluoromethyl)-7-(1,3,5-trimethyl-1H-pyrazol-4-yl)-1H-indol-1-yl)acetic acid]
≥ 7.00 | Cc1cc(OCCCc2c(C(F)(F)F)n(CC(=O)N3CCN(CC(=O)O)CC3)c3c(-c4c(C)nn(C)c4C)cccc23)cc(C)c1Cl [Example 121, 2-(4-(2-(3-(3-(4-chloro-3,5-dimethylphenoxy)propyl)-2-(trifluoromethyl)-7-(1,3,5-trimethyl-1H-pyrazol-4-yl)-1H-indol-1-yl)acetyl)piperazin-1-yl)acetic acid]
≥ 7.00 | Cc1cc(OCCCc2c(C(F)(F)F)n(Cc3cccc(C(=O)O)c3)c3c(-c4c(C)nn(C)c4C)cccc23)cc(C)c1Cl [Example 123, 3-((3-(3-(4-chloro-3,5-dimethylphenoxy)propyl)-2-(trifluoromethyl)-7-(1,3,5-trimethyl-1H-pyrazol-4-yl)-1H-indol-1-yl)methyl)benzoic acid]
≥ 7.00 | Cc1cc(OCCCc2c(C(F)(F)F)n(Cc3ccc(C(=O)O)cc3)c3c(-c4c(C)nn(C)c4C)cccc23)cc(C)c1Cl [Example 124, 4-((3-(3-(4-chloro-3,5-dimethylphenoxy)propyl)-2-(trifluoromethyl)-7-(1,3,5-trimethyl-1H-pyrazol-4-yl)-1H-indol-1-yl)methyl)benzoic acid]
≥ 7.00 | Cc1cc(OCCCc2c(C)n(Cc3cccc(C(=O)NS(C)(=O)=O)c3)c3c(-c4c(C)nn(C)c4C)cccc23)cc(C)c1Cl [Example 125, 3-((3-(3-(4-chloro-3,5-dimethylphenoxy)propyl)-2-methyl-7-(1,3,5-trimethyl-1H-pyrazol-4-yl)-1H-indol-1-yl)methyl)-N-(methylsulfonyl)benzamide]
6.52 to 7.00 | Cc1cc(OCCCc2c(C)n(Cc3cccc(C(=O)NS(=O)(=O)c4cccnc4)c3)c3c(-c4c(C)nn(C)c4C)cccc23)cc(C)c1Cl [Example 129, 3-((3-(3-(4-chloro-3,5-dimethylphenoxy)propyl)-2-methyl-7-(1,3,5-trimethyl-1H-pyrazol-4-yl)-1H-indol-1-yl)methyl)-N-(pyridin-3-ylsulfonyl)benzamide]
≥ 7.00 | Cc1cc(OCCCc2c(C)n(Cc3ccc(C(=O)NS(=O)(=O)c4ccccc4)cc3)c3c(-c4c(C)nn(C)c4C)cccc23)cc(C)c1Cl [Example 130, 4-((3-(3-(4-chloro-3,5-dimethylphenoxy)propyl)-2-methyl-7-(1,3,5-trimethyl-1H-pyrazol-4-yl)-1H-indol-1-yl)methyl)-N-(phenylsulfonyl)benzamide]
≥ 7.00 | Cc1cc(OCCCc2c(C)n(Cc3ccc(C(=O)NS(C)(=O)=O)cc3)c3c(-c4c(C)nn(C)c4C)cccc23)cc(C)c1Cl [Example 131, 4-((3-(3-(4-chloro-3,5-dimethylphenoxy)propyl)-2-methyl-7-(1,3,5-trimethyl-1H-pyrazol-4-yl)-1H-indol-1-yl)methyl)-N-(methylsulfonyl)benzamide]
≥ 7.00 | Cc1cc(OCCCc2c(C)n(CCC(=O)O)c3c(-c4c(C)nn(Cc5cccnc5)c4C)cccc23)cc(C)c1Cl [Example 133, 3-(3-(3-(4-chloro-3,5-dimethylphenoxy)propyl)-7-(3,5-dimethyl-1-(pyridin-3-ylmethyl)-1H-pyrazol-4-yl)-2-methyl-1H-indol-1-yl)propanoic acid]
≥ 7.00 | Cc1cc(OCCCc2c(C)n(Cc3ccc(C(=O)O)cn3)c3c(-c4c(C)nn(C)c4C)c(Cl)ccc23)cc(C)c1Cl [Example 134, 6-((6-chloro-3-(3-(4-chloro-3,5-dimethylphenoxy)propyl)-2-methyl-7-(1,3,5-trimethyl-1H-pyrazol-4-yl)-1H-indol-1-yl)methyl)nicotinic acid]
